Values quoted from earlier work in US11827443B2, “Aerosol foam dispenser” (The Procter & Gamble Company, priority 2021, dated 2023).

Conditions: in water at 20° C.

Row | Structure (SMILES) | Water solubility at 20° C. (weight percent)
1 | O=C=O [Carbon dioxide] | 0.8% weight percent
2 | [He] [Helium] | <0.01 weight percent
3 | COC [Dimethyl ether] | 7% weight percent
4 | CCCC [Butane] | <0.01% weight percent
5 | [N-]=[N+]=O [Nitrous oxide] | 0.12 weight percent
6 | CC(C)C [Isobutane] | <0.01% weight percent
